Assay [1] has as its target T1, human recombinant dopamine D2L receptor (Homo sapiens, UniProt P14416).
T1 construct: expressed in transfected cells; host or cells: CHO
As to the kind of experiment: Dopamine D2L radioligand binding ([3H]Spiperone). To be noted: compound at 1 μM; read-out: Percentage inhibition of ligand binding, Dopamine (1 μM) D2L. How it is done:
To evaluate in radioligand binding assays the activity of compounds of the invention, human recombinant dopamine D2L receptor expressed in Chinese hamster ovary (CHO) cells (Grandy, D. et al, Proc. Natl. Acad. Sci. USA. 86:9762, 1989; Hayes, G. et al, Mol. Endocrinol. 6:920, 1992) in a modified Tris-HCl buffer (50 mM Tris-HCl, pH 7.4, 1.4 mM Ascorbic Acid, 0.001% BSA, 150 mM NaCl) was used. Compounds of the invention were incubated with 0.16 nM [^3H]Spiperonefor 120 min at 25° C. Non-specific binding was estimated in the presence of 10 μM Haloperidol. Receptor proteins were filtered and washed, the filters were then counted to determine [^3H]Spiperone specifically bound. Compounds were screened at 1 μM or lower, using 1% DMSO as vehicle. Biochemical assay results are presented as the percent inhibition of specific binding in Table 3.

Assay [2] concerns the target T2, rat adrenergic α1A receptor (Rattus norvegicus, UniProt P43140).
T2 construct: rat adrenergic α1A receptor obtained from Wistar Rat submaxillary glands; from tissue; host or cells: Wistar rat submaxillary glands
T2 sequence (P43140 1-466): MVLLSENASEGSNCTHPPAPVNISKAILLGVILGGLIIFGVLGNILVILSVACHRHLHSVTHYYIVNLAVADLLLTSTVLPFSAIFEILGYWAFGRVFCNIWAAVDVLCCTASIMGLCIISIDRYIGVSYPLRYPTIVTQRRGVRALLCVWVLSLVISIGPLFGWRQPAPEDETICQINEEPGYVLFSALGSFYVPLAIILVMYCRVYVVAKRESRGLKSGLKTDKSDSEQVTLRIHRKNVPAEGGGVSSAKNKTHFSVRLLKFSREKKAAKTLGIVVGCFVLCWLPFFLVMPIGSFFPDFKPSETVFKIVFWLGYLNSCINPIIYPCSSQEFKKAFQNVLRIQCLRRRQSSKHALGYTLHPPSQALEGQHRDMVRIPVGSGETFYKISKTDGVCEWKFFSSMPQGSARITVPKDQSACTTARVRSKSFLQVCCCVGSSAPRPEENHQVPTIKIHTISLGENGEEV
The experiment in a line: Adrenergic α1A radioligand binding ([3H]Prazosin). The conditions noted are these: compound at 0.1 μM; read-out: Percentage inhibition of ligand binding, Adrenergic (0.1 μM) α1A. How it is done: To evaluate in radioligand binding assays the activity of compounds of the invention, rat adrenergic α1A receptor obtained from Wistar Rat submaxillary glands (Michel, A. et al, Br. J. Pharmacol. 98:883, 1989) in a modified Tris-HCl buffer (50 mM Tris-HCl buffer, pH 7.4, 0.5 mM EDTA) was used. Compounds of the invention were incubated with 0.25 nM [^3H]Prazosin for 60 min at 25° C. Non-specific binding was estimated in the presence of 10 μM phentolamine. Receptor proteins were filtered and washed, the filters were then counted to determine [^3H]Prazosin specifically bound. Compounds of the invention were screened at 1 μM or lower, using 1% DMSO as vehicle. Biochemical assay results are presented as the percent inhibition of specific binding in Table 3.

For assay [3], the target named is T3, human recombinant adrenergic α2C receptor (Homo sapiens, UniProt P18825).
T3 construct: expressed in transfected cells; host or cells: insect Sf9 cells
T3 sequence (P18825 1-462): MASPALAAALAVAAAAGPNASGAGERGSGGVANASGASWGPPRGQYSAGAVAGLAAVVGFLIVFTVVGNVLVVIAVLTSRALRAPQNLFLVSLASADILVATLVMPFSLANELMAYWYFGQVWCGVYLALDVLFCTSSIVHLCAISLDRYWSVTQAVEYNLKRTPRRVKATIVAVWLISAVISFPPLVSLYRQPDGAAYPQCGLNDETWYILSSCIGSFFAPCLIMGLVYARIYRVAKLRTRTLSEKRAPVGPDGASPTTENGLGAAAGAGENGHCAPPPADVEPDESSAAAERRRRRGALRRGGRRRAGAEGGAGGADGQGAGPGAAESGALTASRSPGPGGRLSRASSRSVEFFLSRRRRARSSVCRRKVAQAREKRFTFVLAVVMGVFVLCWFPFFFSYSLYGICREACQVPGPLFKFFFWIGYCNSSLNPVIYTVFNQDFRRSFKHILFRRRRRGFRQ
As to the kind of experiment: Adrenergic α2C radioligand binding ([3H]MK-912). The conditions noted are these: compound at 0.1 μM; read-out: Percentage inhibition of ligand binding, Adrenergic (0.1 μM) α2C. The protocol:
To evaluate in radioligand binding assays the activity of compounds of the invention, human recombinant adrenergic α2C receptor expressed in insect Sf9 cells (Uhlen, S. et al, J. Pharmacol. Exp. Ther. 271:1558, 1994) in a modified Tris-HCl buffer (50 mM Tris-HCl, pH 7.4, 12.5 mM MgCl2, 2 mM EDTA) was used. Compounds of the invention were incubated with 1 nM [^3H]MK-912 for 60 min at 25° C. Non-specific binding was estimated in the presence of 10 μM WB-4101. Receptor proteins were filtered and washed, the filters were then counted to determine [^3H]MK-912 specifically bound. Compounds were screened at 1 μM or lower, using 1% DMSO as vehicle. Biochemical assay results are presented as the percent inhibition of specific binding in Table 3.

Assay [4] has as its target T4, human recombinant serotonin (5-Hydroxytryptamine) 5-HT6 receptor (Homo sapiens, UniProt P50406).
T4 construct: expressed in transfected cells; host or cells: HeLa
As to the kind of experiment: Serotonin 5-HT6 radioligand binding ([3H]LSD). The conditions noted are these: compound at 0.1 μM; read-out: Percentage inhibition of ligand binding, Serotonin (0.1 μM) 5-HT6. The protocol:
To evaluate in radioligand binding assays the activity of compounds of the invention, human recombinant serotonin (5-Hydroxytryptamine) 5-HT6 receptor expressed in human HeLa cells (Monsma, F. Jr. et al, Mol. Pharmacol. 43:320, 1993) in a modified Tris-HCl buffer (50 mM Tris-HCl, pH 7.4, 150 mM NaCl, 2 mM Ascorbic Acid, 0.001% BSA) was used. Compounds of the invention were incubated with 1.5 nM [3H]Lysergic acid diethylamide (LSD) for 120 min at 37° C. Non-specific binding was estimated in the presence of 5 μM Serotonin (5-HT). Receptor proteins were filtered and washed, the filters were then counted to determine [3H]LSD specifically bound. Compounds were screened at 1 μM or lower, using 1% DMSO as vehicle. Biochemical assay results are presented as the percent inhibition of specific binding in Table 4.

T4 sequence (P50406 whole entry): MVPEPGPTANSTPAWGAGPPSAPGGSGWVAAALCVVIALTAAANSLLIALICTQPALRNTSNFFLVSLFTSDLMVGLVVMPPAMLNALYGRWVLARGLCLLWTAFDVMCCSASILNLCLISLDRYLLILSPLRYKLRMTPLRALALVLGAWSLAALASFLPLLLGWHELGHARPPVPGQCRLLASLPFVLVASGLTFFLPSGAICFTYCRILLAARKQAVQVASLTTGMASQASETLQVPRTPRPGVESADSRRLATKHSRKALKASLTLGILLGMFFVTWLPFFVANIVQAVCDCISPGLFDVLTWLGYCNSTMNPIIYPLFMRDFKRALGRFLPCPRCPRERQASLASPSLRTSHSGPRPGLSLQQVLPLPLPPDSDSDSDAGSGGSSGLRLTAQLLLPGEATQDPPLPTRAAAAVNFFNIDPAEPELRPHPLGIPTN
T1 sequence (P14416 whole entry): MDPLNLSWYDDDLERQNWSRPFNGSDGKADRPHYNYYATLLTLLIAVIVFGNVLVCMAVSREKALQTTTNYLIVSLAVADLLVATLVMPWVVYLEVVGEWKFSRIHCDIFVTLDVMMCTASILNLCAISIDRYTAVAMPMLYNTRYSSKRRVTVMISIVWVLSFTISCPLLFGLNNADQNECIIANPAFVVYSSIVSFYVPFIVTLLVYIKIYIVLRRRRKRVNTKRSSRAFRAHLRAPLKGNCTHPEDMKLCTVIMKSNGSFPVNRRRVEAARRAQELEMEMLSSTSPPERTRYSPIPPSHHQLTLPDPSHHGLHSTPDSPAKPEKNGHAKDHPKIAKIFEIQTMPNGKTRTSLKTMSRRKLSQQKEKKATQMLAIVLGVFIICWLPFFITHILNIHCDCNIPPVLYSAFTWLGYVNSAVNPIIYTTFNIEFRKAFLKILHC

The inhibition is the relative decrease from the control value, in per cent. On to `Cc1cc(-c2ccc(F)cc2)c2c(c1)c1c(n2C)CCN(C)C1` [Compound 7], for which the inhibition at 1 µM in assay [1] was found to be 5%. Besides, the inhibition at 0.1 µM in assay [2] is 1%; in assay [3] it was 8%; in assay [4], 10%.

As to `Cc1cc(C#Cc2cccs2)c2[nH]c3c(c2c1)CN(C)CC3` [Compound 8], the inhibition at 1 µM in assay [1] was -1%. Further, the results for the inhibition at 0.1 µM in assay [2], in assay [3] and in assay [4] were -5%, 7% and 15%, respectively.

On to `Cc1cc(-c2ccncc2)c2c(c1)c1c(n2C)CCN(C)C1` [Compound 9], for which, in assay [1], the inhibition at 1 µM was 7%. Besides, the inhibition at 0.1 µM in assay [2] is 4%; in assay [3] it was 1%; in assay [4], -2%.

With `C#Cc1cc(C)cc2c3c(n(C)c12)CCN(C)C3` [Compound 10, 6-Ethynyl-2,3,4,5-tetrahydro-2,5,8-trimethyl-1H-pyrido[4,3-b]indole], the inhibition at 1 µM in assay [1] came out at 70%. For the same molecule, the results for the inhibition at 0.1 µM in assay [2], in assay [3] and in assay [4] were 6%, 36% and 18%, respectively.

With `C/C(=C\c1cc(C)cc2c3c(n(C)c12)CCN(C)C3)c1ccncc1` [Compound 11], in assay [1], the inhibition at 1 µM is 28%. Besides, the inhibition at 0.1 µM in assay [2] is -14%; in assay [3], 12%; in assay [4], -6%.

In the case of `Cc1cc(C#Cc2ccc(C)nc2)c2c(c1)c1c(n2C)CCN(C)C1` [Compound 12, 2,3,4,5-tetrahydro-2,5,8-trimethyl-6-(2-(6-methylpyridin-3-yl)ethynyl)-1H-pyrido[4,3-b]indole], the inhibition at 1 µM in assay [1] was found to be 14%. For the same molecule, the inhibition at 0.1 µM is -12% in assay [2], 3% in assay [3] and -3% in assay [4].

Regarding `Cc1cc(CCc2ccc(C)nc2)c2c(c1)c1c(n2C)CCN(C)C1` [Compound 13], the inhibition at 1 µM in assay [1] was 15%. Further, the inhibition at 0.1 µM in assay [2], in assay [3] and in assay [4] was 2% each time.

On to `Cc1cc(/C=C/c2ccc(C)nc2)c2c(c1)c1c(n2C)CCN(C)C1` [Compound 14], for which the inhibition at 1 µM in assay [1] was 14%. Besides, the inhibition at 0.1 µM in assay [2] is -16%; in assay [3], 1%; in assay [4], 10%.

Regarding `C/C(=C\c1cc(C)cc2c3c(n(C)c12)CCN(C)C3)c1ccc(C)nc1` [Compound 15], the inhibition at 1 µM in assay [1] came to 3%. The inhibition at 0.1 µM is 3% in assay [2], -14% in assay [3] and 11% in assay [4].

In the case of `Cc1cc(C#Cc2nccs2)c2[nH]c3c(c2c1)CN(C)CC3` [Compound 16], the inhibition at 1 µM in assay [1] was -1%. The values for the inhibition at 0.1 µM in assay [2], in assay [3] and in assay [4] were -1%, 5% and 14%, respectively.

For `Cc1cc(C#Cc2ccncc2)c2c(c1)c1c(n2C)CCN(C)C1` [Compound 17], the inhibition at 1 µM in assay [1] was determined as 1%. For the same molecule, the inhibition at 0.1 µM in assay [2] was -2%; in assay [3], 3%; in assay [4], 5%.

With `Cc1ccc(C#Cc2cc(Cl)cc3c4c(n(C)c23)CCN(C)C4)cn1` [Compound 18], the inhibition at 1 µM in assay [1] came to 7%. Besides, the inhibition at 0.1 µM is 14% in assay [2], 0% in assay [3] and 6% in assay [4].

Source of the values: patent publication US9034865B2, “Pyrido [4,3-B] indole and pyrido [3,4-B] indole derivatives and methods of use” (Medivation Technologies, Inc., priority 2010, dated 2015).
